In BindingDB's records for doi:10.1073/pnas.90.8.3452 (The Scripps Research Institute, 1993) one finds Ki data, which are given here for twelve compounds.

Assay [1] addresses 5-hydroxytryptamine receptor 5B (Rattus norvegicus, UniProt P35365).
In assay [2] the target is 5-hydroxytryptamine receptor 5A (Rattus norvegicus, UniProt P35364).

Structures are written as SMILES.

By Ki is commonly meant a dissociation constant, usually derived from enzyme kinetics or from competition with a known ligand. A low value points to tighter binding.

Sequence of 5-hydroxytryptamine receptor 5B (P35365 whole entry): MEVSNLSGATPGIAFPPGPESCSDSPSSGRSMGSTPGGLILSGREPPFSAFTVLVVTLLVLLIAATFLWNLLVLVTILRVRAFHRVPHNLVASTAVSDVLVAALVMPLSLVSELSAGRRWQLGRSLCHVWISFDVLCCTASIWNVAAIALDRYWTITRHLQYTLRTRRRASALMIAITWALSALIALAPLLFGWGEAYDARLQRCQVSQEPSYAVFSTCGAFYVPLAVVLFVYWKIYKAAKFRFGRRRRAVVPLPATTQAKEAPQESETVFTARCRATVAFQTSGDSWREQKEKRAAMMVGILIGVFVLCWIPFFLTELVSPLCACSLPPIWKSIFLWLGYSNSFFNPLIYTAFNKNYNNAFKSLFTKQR
Sequence of 5-hydroxytryptamine receptor 5A (P35364 whole entry): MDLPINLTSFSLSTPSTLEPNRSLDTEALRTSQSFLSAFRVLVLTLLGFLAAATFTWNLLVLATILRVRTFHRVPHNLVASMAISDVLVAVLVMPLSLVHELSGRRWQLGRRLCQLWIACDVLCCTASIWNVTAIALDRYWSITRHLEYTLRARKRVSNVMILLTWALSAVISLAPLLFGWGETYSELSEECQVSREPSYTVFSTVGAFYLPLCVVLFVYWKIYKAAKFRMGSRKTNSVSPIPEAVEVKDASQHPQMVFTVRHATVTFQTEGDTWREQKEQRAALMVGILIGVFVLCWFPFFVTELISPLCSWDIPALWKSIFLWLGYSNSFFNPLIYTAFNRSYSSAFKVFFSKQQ

As for `CCCN(CCC)C1CCc2cccc(O)c2C1` (stereo unspecified), the Ki in assay [1] and in assay [2] was 1000 nM each time.

`CC[C@@H](CO)NC(=O)[C@@H]1C=C2c3cccc4c3c(cn4C)C[C@H]2N(C)C1`: the Ki in assay [1] worked out at 196 nM; in assay [2] it was 1000 nM.

In the case of `NCCc1ccc(O)c(O)c1`, the Ki in assay [1] and in assay [2] was 1000 nM throughout.

As to `COc1ccc2[nH]cc(CCNC(C)=O)c2c1`, the Ki in assay [1] and in assay [2] was 1000 nM throughout.

In the case of `CN1C[C@@H](NS(=O)(=O)N(C)C)C[C@@H]2c3cccc4c3c(cn4C)C[C@H]21` [MESULERGINE], the Ki in assay [1] and in assay [2] was 1000 nM in each case.

Consider `CN1C[C@H](CNC(=O)OCc2ccccc2)C[C@@H]2c3cccc4c3c(cn4C)C[C@H]21` [METERGOLINE], for which the Ki in assay [1] and in assay [2] was 1000 nM in each case.

`NCC(O)c1ccc(O)c(O)c1` (stereo not drawn) [Noradrenaline,(+)]: the Ki in assay [1] and in assay [2] was 1000 nM each time.

As for `COc1cc(N)c(Cl)cc1C(=O)NC1CN2CCC1CC2` (stereo unspecified) [ZACOPRIDE,R], the Ki in assay [1] and in assay [2] was 1000 nM throughout.

In turn, `NCCc1c[nH]c2ccc(O)cc12` [[3H]-5-HT] gave a Ki in assay [2] of 1330 nM.

In the case of `NCCc1c[nH]c2ccc(C(N)=O)cc12` [[3H]-5-carboxamidotryptamine], the Ki in assay [1] was 12.6 nM.

For `COc1cc(CC(C)N)c(OC)cc1I` (stereo unspecified) [[125I]2,5-dimethoxy-4-iodoamphetamine], the Ki in assay [1] and in assay [2] was 1000 nM each time.

As for `CSc1ccc2c(c1)C(N1CCN(C)CC1)Cc1ccccc1S2` (stereo unspecified) [methanesulfonic acid;1-methyl-4-(3-methylsulfanyl-5,6-dihydrobenzo[b][1]benzothiepin-5-yl)piperazine], the Ki in assay [2] was 146 nM. This lies in the sub-micromolar range.
